{"source": "patent US20250002435A1", "about": "“ARYLATED FENCHONE DERIVATIVES, COMPOSITIONS COMPRISING THEM, PROCESSES FOR THEIR PREPARATION AND USES THEREOF” (priority 2021, published 2025)", "key": {"CNR2 [1]": {"target": "T1, CNR2 (Homo sapiens (Human), UniProt P34972)", "experiment": "cAMP Hunter antagonist assay, CB2", "assay_type": "cell-based", "conditions": "cAMP antagonist mode", "description": "(§1) Cannabinoid receptors belong to G-protein-coupled receptors which may transduce intracellular agonist-antagonist responses regulating in part levels of cAMP within the cells. Fenchone derivates were assayed using Eurofins proprietary assays (i.e. CB1-Antagonist Catalog #86-0007P-2277AN; CB2-Antagonist Catalog ref. 86-0007P-2818AN; CB1-Agonist; Catalog #86-0007P-2277AG; CB2-Agonist-Catalog #86-0007P-2818AG).\nBriefly, for antagonist activity, cAMP Hunter™ Gi cell lines overexpress naturally Gi coupled, wild type GPCRs and are designed to detect inhibition of intracellular cAMP production in response to agonist stimulation of the receptor. These cell lines are designed to be used in conjunction with the HitHunter® cAMP Assay Detection Kit.\nSimilarly, for agonist activity, cAMP Hunter™ Gs cell lines overexpress naturally Gs coupled, wild type GPCRs and are designed to detect increases in intracellular cAMP levels in response to agonist stimulation of the receptor. These cell lines are designed to be used in conjunction with the HitHunter® cAMP Assay Detection Kit. […]"}, "CNR1": {"target": "CNR1 (Homo sapiens (Human), UniProt P21554)", "experiment": "cAMP Hunter agonist assay, CHO-K1 cells expressing CB1", "assay_type": "cell-based", "description": "as §1\nSimilarly, for agonist activity, cAMP Hunter™ Gs cell lines overexpress naturally Gs coupled, wild type GPCRs and are designed to detect increases in intracellular cAMP levels in response to agonist stimulation of the receptor. These cell lines are designed to be used in conjunction with the HitHunter® cAMP Assay Detection Kit. For both assays, human CB1 or CB2 receptors were stably transfected CHO-K1 cells and subjected to positive controls, known to activate the increase of cAMP for both receptors (Agonist control 20 μM Forskolin for CB1 and 25 μM Forskolin for CB2) or inhibit cAMP intracellular levels of CB1 ([…] CP55940) or CB2 ([…] CP55940). Cells were seeded in a total volume of 20 μL into white walled, 384-well microplates and incubated at 37° C. overnight. Prior to testing cell plating media was exchanged with 10 uL of Assay buffer (HBSS+10 mM HEPES). […]"}, "CNR2 [2]": {"target": "T1, CNR2", "experiment": "cAMP Hunter agonist assay, CHO-K1 cells expressing CB2", "assay_type": "cell-based", "conditions": "for EC50: cells expressing CNR2; for agonist response CNR2: cells expressing CNR2, cAMP", "description": "as §1\nSimilarly, for agonist activity, cAMP Hunter™ Gs cell lines overexpress naturally Gs coupled, wild type GPCRs and are designed to detect increases in intracellular cAMP levels in response to agonist stimulation of the receptor. These cell lines are designed to be used in conjunction with the HitHunter® cAMP Assay Detection Kit. For both assays, human CB1 or CB2 receptors were stably transfected CHO-K1 cells and subjected to positive controls, known to activate the increase of cAMP for both receptors (Agonist control 20 μM Forskolin for CB1 and 25 μM Forskolin for CB2) or inhibit cAMP intracellular levels of CB1 ([…] CP55940) or CB2 ([…] CP55940). Cells were seeded in a total volume of 20 μL into white walled, 384-well microplates and incubated at 37° C. overnight. Prior to testing cell plating media was exchanged with 10 uL of Assay buffer (HBSS+10 mM HEPES). Five 5 μL of agonist (test sample, vehicle or positive control) were added to cells and incubated at 37° C. for 30 minutes. Final assay vehicle concentration was 1% and the results are expressed in relation to the control ligand."}, "hCB2R": {"target": "hCB2R (Homo sapiens (Human), UniProt P34972)", "sequence (P34972 whole entry)": "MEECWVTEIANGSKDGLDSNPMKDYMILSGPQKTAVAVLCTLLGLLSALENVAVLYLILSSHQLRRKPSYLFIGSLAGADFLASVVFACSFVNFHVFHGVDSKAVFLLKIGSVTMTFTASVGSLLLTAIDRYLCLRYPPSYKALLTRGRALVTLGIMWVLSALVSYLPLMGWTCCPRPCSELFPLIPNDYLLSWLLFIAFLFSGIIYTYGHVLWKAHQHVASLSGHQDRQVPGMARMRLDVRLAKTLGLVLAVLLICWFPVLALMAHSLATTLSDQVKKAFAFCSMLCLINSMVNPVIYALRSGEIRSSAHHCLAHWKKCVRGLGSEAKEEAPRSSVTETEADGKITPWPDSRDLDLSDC", "experiment": "[3H]CP-55,940 competition displacement binding, membranes of CHO-K1 cells expressing human CB2R", "conditions": "for Ki: displacement of [3H]CP-55,940; for mCB1R/hCB2R: selectivity index from Ki values", "description": "(§2) Affinity for Cannabinoid Receptors. The compounds were further characterized using a radioligand binding assay to determine their affinities for CB1R and CB2R based on each test compound's ability to displace the radiolabeled CB1R/CB2R agonist CP-55,940 from membranes prepared from a mouse brain (a source of CB1R) and membranes of cells expressing the human CB2R. […] Therefore, the compounds were assayed using membranes from CHO-K1 cells expressing the human CB2R (hCB2R).\n(§3) Membranes from cells expressing human CB2R were purchased from Charles River, (Cat #A308; Ohio, US). Solutions of test compounds ranging from 0.1 nM to 10 mM were prepared in DMSO. The desired amount of membrane preparation was diluted with ice-cold assay buffer (50 mM Tris-HCl, 2.5 mM EDTA, 5 mM MgCl2, 0.1% BSA, pH 7.4) and was vortexed. […] The assays were incubated for 90 minutes at 30° C. and then immediately filtered on WHATMAN GF/B FilterPaper (Fired) using a Brandel M-24R Harvester followed by six washes with ice cold wash buffer (50 mM Tris-HCl, 2.5 mM EDTA, 5 mM MgCl2, 0.1% BSA, pH 7.4). Radioactivity was detected by adding the FilterPaper directly to the ULTIMA GOLD scintillation cocktail (PerkinElmer), incubation at 20° C. for 60 min and then counted using a Tri-Carb 4910TR liquid scintillation counter."}, "[3]": {"test_system": "zymosan-induced paw swelling", "experiment": "zymosan mouse paw inflammatory pain model, paw swelling, with or without CB2 antagonists", "assay_type": "in vivo", "conditions": "for paw swelling vs control: 6 h; for paw swelling effects: SR144528 experiment, 24 h after induction", "description": "To induce inflammation, 40 μL of 1.5% (w/v) zymosan A (Sigma) suspended in 0.9% saline was injected into the sub-planter surface of the right hind paw of the mice. Immediately after zymosan injection, antagonists were injected intraperitoneally (IP) and after 30 minutes, the fenchone derivatives dissolved in 0.1 mL vehicle containing ethanol:Cremophore:saline at a ratio of 1:1:18 were injected. Control mice were injected with the vehicle only. After 2, 6, and 24 hrs, paw swelling, and pain perception were measured.\nSpecifically, measurement of Oedema Formation was assessed by monitoring paw swelling via calibrated calipers (0.01 mm), 6 and 24 hrs following injections of zymosan alone and/or the test compounds. Pain hyperalgesia was evaluated by the paw withdrawal von Frey test at 6, and 24 h following injections of zymosan and/or the test compounds. […] In this study, only 1.4-60 g corresponding to 4.17 to 5.88 log of force was used, to test the mouse sensitivity to a mechanical stimulus on the swollen paw. The measurements were performed in a quiet room. Before paw pain measurements, the animals were held for 10 sec. The trained investigator applied the filament to the central area of the hind paw with gradual increasing size. The test consisted of poking the middle of the hind paw to provoke a flexion reflex followed by a clear flinch response after paw withdrawal. Each one of the von Frey filaments was applied for approximately 3-4 s to induce the end-point reflex. The first testing was done by using the force filament of 1.4 g. If there was no withdrawal response, the next higher stimulus was tried. The mechanical threshold force (in grams (g)) was defined as the lowest force imposed by two von Frey monofilaments of various sizes, required to produce a paw retraction. The untreated left hind paw served as a control."}, "mCB1R": {"target": "mCB1R (Mus musculus (Mouse), UniProt P47746)", "sequence (P47746 whole entry)": "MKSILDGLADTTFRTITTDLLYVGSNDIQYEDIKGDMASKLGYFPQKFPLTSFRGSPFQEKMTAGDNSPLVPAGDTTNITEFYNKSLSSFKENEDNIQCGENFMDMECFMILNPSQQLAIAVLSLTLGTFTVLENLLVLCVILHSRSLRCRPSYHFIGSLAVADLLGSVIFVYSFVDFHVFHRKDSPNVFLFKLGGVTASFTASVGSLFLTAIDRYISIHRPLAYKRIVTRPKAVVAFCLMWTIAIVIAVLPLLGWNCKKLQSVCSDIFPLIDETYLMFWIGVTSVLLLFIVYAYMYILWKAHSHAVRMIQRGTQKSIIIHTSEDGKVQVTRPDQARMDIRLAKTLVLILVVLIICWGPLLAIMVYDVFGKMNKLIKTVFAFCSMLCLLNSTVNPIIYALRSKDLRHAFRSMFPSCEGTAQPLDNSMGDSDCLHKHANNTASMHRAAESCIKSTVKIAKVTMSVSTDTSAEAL", "experiment": "[3H]CP-55,940 competition displacement binding, crude membranes from mouse brain", "conditions": "for Ki: displacement of [3H]CP-55,940, NB = No binding detected at concentrations up to 10 μM, read-out: Ki (nM) mCB1R", "description": "as §2, §3"}, "TNFα": {"test_system": "TNFα", "experiment": "serum TNFα ELISA 24 h after zymosan injection", "assay_type": "in vivo, mouse", "conditions": "25 mg/kg, serum 24 h after zymosan", "description": "Blood was collected 24 h after zymosan injection, and the sera were assayed for TNFα using a mouse TNFα ELISA kit (R&D Systems, Minneapolis, MN, USA), according to the manufacturer's instructions."}, "[4]": {"conditions": "25 mg/kg IP together with CB2 antagonist SR144528 1 mg/kg"}}, "data": [{"smiles": "CCCCCc1cc(OC)c(C2(O)C3(C)CCC(C3)C2(C)C)c(OC)c1", "note": "(single isomer, unassigned) [Compound 1b, 2-(2,6′-dimethoxy-4′-pentylphenyl)-1,3,3-trimethylbicyclo[2.2.1]heptan-2-ol]", "values": [{"measurement": "antagonistic effect CNR2", "setting": "CNR2 [1]", "value": "no detectable antagonistic effect"}, {"measurement": "agonist response CNR1", "setting": "CNR1", "value": "no response"}, {"measurement": "EC50", "setting": "CNR2 [2]", "value": 50, "unit": "nM"}, {"measurement": "agonist response CNR2", "setting": "CNR2 [2]", "value": "noticeable response"}, {"measurement": "Ki", "setting": "hCB2R", "value": 14.4, "unit": "nM"}, {"measurement": "mCB1R/hCB2R", "setting": "hCB2R", "value": 158.3}, {"measurement": "paw swelling vs control", "setting": "[3]; [4]", "value": "paw swelling was unaffected"}, {"measurement": "paw swelling vs control", "setting": "[3]; 25 mg/kg IP, alone", "value": "reduced swelling response"}, {"measurement": "paw swelling effects", "setting": "[3]", "value": "not observed"}, {"measurement": "Ki", "setting": "mCB1R", "value": 2290, "unit": "nM"}, {"measurement": "inhibition of [3H]CP-55,940 binding to mCB1R", "setting": "mCB1R; in words", "value": "no detectable inhibition"}]}, {"smiles": "CCCCCCC(C)(C)c1cc(OC)c([C@]2(O)C3(C)CCC(C3)C2(C)C)c(OC)c1", "note": "(stereo partly shown) [Compound 1d, 2-(2,6′-dimethoxy-4′-(2″-methyloctan-2″-yl)phenyl)-1,3,3-trimethyl-bicyclo[2.2.1]heptan-2-ol]", "values": [{"measurement": "antagonistic effect CNR2", "setting": "CNR2 [1]", "value": "no detectable antagonistic effect"}, {"measurement": "levels of TNF-α", "setting": "TNFα", "value": "reduced significantly"}, {"measurement": "agonist response CNR1", "setting": "CNR1", "value": "no response"}, {"measurement": "EC50", "setting": "CNR2 [2]", "value": 10, "unit": "nM"}, {"measurement": "agonist response CNR2", "setting": "CNR2 [2]", "value": "noticeable response"}, {"measurement": "Ki", "setting": "hCB2R", "value": 3.51, "unit": "nM"}, {"measurement": "selectivity for the hCB2R over the mCB1R", "setting": "hCB2R; from Ki values", "value": 121, "unit": "fold"}, {"measurement": "mCB1R/hCB2R", "setting": "hCB2R", "value": 121.8}, {"measurement": "paw swelling", "setting": "[3]; 25 mg/kg IP 1D and 10 mg/kg AM630, 6 h", "value": "reduced swelling"}, {"measurement": "paw swelling", "setting": "[3]; 25 mg/kg IP alone, 24 h, AM630 experiment", "value": "reduced swelling with 1D alone was sustained"}, {"measurement": "paw swelling vs control", "setting": "[3]; [4]", "value": "swelling was reduced compared to the control"}, {"measurement": "paw swelling vs control", "setting": "[3]; 25 mg/kg IP, alone", "value": "reduced swelling response"}, {"measurement": "paw swelling effects", "setting": "[3]", "value": "not observed"}, {"measurement": "Ki", "setting": "mCB1R", "value": 427, "unit": "nM"}]}]}
